The source of these data is US20140018316A1, “OPHTHALMIC PHARMACEUTICAL COMPOSITION” (Hayashibara Co., Ltd., priority 2005, published 2014).

SMILES strings stand for the structures.

The assay has as its system circular corneal fragment extracted from a pig eye ball. The experiment in a line: Corneal walleye/cloudiness and edema of pig corneal fragments soaked in test or control solutions. Conditions: for corneal edema / degree of corneal walleye/cloudiness (relative value): 100 mM in physiological saline. Set-up: degree of corneal walleye/cloudiness (relative value): scale not given here; key to corneal edema: ◯: Corneal edema was observed.; —: No corneal edema was observed. The procedure: Experiment to examine the influence of cyclic tetrasaccharide on corneal walleye/cloudiness was conducted as follows: A physiological saline containing 100 mM cyclic tetrasaccharide was previously prepared for use as a test solution by dissolving a cyclic tetrasaccharide crystal, pentahydrate, which had been prepared by the later described method in Example for Reference 2. As a positive control solution, it was prepared a physiological saline containing 100 mM α,α-trehalose, a reagent grade specimen, commercialized by Hayashibara Biochemical Laboratories, Inc., Okayama, Japan; and as a negative control solution, physiological saline was used. Two milliliters of any one of the above three kinds of aqueous solutions were added to respective two wells in a commercialized 24-well culture plate. To each well in each culture plate a circular corneal fragment, which had been extracted from a pig eye ball obtained from a slaughterhouse by using a trephine for corneal transplantation, was placed and macroscopically and microscopically observed for changing in both the degree of corneal walleye/cloudiness and the change of corneal shape such as corneal edema. The macroscopic and microscopic observations were done just after the corneas were placed in the wells at (0) and at 1, 2, 6, 24, 48 and 72 hours after their placing. The methods of macroscopic and microscopic observations and the analysis of the time course change of corneal walleye/cloudiness were conducted by the same ones as used in Experiment 1. Tables 3 and 4 show the transition of corneal walleye/cloudiness and that of the corneal edema, respectively.

Consider `OCC1OC2OCC3O[C@H](O[C@H]4C(O)C(CO)OC(OCC5O[C@H](O[C@@H](C1O)C2O)C(O)C(O)[C@@H]5O)C4O)C(O)C(O)[C@@H]3O` (stereo partly drawn) [Test solution, cyclo{→6)-α-D-glucopyranosyl-(1→3)-α-D-glucopyranosyl-(1→6)-α-D-glucopyranosyl-(1→3)-α-D-glucopyranosyl-(1→}], for which the corneal edema entry reads like this: (1 hour) “—”; (2 hours) “—”; (6 hours) “—”; (24 hours) “—”; (48 hours) “—”; (72 hours) “—”. For the same compound, the corneal edema entry (time 0) was “—”. The “degree of corneal walleye/cloudiness (relative value)” value by setting is: (1 hour) 11; (2 hours) 11; (6 hours) 13; (24 hours) 16; (48 hours) 16; (72 hours) 19. In addition, for the setting “time 0”, the “degree of corneal walleye/cloudiness (relative value)” value was 10. The “corneal edema (in words)” value (100 mM, up to 72 hours) is recorded as “No occurrence of corneal edema was observed”.
